Here are results for twelve compounds from PMC8788145 (Journal of medicinal chemistry, 2017).

Each structure is given as a SMILES string.

In the assay the target is human plasmin (Homo sapiens, UniProt P00747). The assay can be described thus: Direct inhibition of human plasmin, chromogenic substrate. The format is biochemical. To be noted: Tris-HCl buffer pH 7.4, 37 °C.
human plasmin, sequence (P00747 97-580 limits assumed): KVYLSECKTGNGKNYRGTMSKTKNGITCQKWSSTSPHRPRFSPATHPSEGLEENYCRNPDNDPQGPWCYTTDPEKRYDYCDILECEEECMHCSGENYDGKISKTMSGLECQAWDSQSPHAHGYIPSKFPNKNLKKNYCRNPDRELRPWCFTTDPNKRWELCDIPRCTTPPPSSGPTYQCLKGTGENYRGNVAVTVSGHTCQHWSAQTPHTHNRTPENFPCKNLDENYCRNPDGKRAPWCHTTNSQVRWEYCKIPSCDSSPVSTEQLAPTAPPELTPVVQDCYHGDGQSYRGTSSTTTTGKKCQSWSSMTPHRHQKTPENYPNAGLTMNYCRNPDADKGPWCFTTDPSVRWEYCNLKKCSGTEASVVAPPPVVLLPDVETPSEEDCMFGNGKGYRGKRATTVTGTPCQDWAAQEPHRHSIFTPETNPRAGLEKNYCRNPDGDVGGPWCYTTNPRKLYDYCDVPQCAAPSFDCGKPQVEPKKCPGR
human plasmin, sequence (P00747 581-810 limits assumed): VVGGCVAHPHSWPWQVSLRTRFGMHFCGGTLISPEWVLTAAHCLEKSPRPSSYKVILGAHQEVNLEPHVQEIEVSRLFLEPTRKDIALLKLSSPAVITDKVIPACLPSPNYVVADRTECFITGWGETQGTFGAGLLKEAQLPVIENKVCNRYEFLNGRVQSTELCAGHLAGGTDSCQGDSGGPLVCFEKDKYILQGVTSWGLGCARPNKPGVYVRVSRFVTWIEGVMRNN
Turning to `Cc1cc(COc2cc(OS(=O)(=O)[O-])cc3oc(-c4ccc(OS(=O)(=O)[O-])c(OS(=O)(=O)[O-])c4)c(OS(=O)(=O)[O-])c(=O)c23)c(C)cc1COc1cc(OS(=O)(=O)[O-])cc2oc(-c3ccc(OS(=O)(=O)[O-])c(OS(=O)(=O)[O-])c3)c(OS(=O)(=O)[O-])c(=O)c12.[Na+].[Na+].[Na+].[Na+].[Na+].[Na+].[Na+].[Na+]` [NSGM 4, Sodium 4-(5-((4-(((2-(3,4-Bis(sulfonatooxy)phenyl)-4-oxo-3,7-bis(sulfonatooxy)-4H-chromen-5-yl)oxy)methyl)-2,5-dimethylbenzyl)oxy)-4-oxo-3,7-bis(sulfonatooxy)-4H-chromen-2-yl)-1,2-phenylene Bis(sulfate)], the “HS (Hill slope)” value was 0.7 ± 0.1. With `O=c1cc(-c2ccc(OS(=O)(=O)[O-])cc2)oc2cc(OS(=O)(=O)[O-])cc(OCCOc3cc(OS(=O)(=O)[O-])cc4oc(-c5ccc(OS(=O)(=O)[O-])cc5)cc(=O)c34)c12.[Na+].[Na+].[Na+].[Na+]` [NSGM 7, Sodium 4-Oxo-5-(2-((4-oxo-7-(sulfonatooxy)-2-(4-(sulfonatooxy)phenyl)-4H-chromen-5-yl)oxy)ethoxy)-2-(4-(sulfonatooxy)phenyl)-4H-chromen-7-yl Sulfate], the “HS (Hill slope)” value is 2.4 ± 0.3. Take `O=c1cc(-c2ccc(OS(=O)(=O)[O-])cc2)oc2cc(OS(=O)(=O)[O-])cc(OCc3ccc(COc4cc(OS(=O)(=O)[O-])cc5oc(-c6ccc(OS(=O)(=O)[O-])cc6)cc(=O)c45)cc3)c12.[Na+].[Na+].[Na+].[Na+]` [NSGM 11, Sodium 4-Oxo-5-((4-(((4-oxo-7-(sulfonatooxy)-2-(4-(sulfonatooxy)phenyl)-4H-chromen-5-yl)oxy)methyl)benzyl)-oxy)-2-(4-(sulfonatooxy)phenyl)-4H-chromen-7-yl Sulfate]: the “HS (Hill slope)” value was determined as 2.4 ± 0.3.

As for `O=c1cc(-c2ccc(OS(=O)(=O)[O-])cc2)oc2cc(OS(=O)(=O)[O-])cc(OC/C=C/COc3cc(OS(=O)(=O)[O-])cc4oc(-c5ccc(OS(=O)(=O)[O-])cc5)cc(=O)c34)c12.[Na+].[Na+].[Na+].[Na+]` [NSGM 10, Sodium (E)-4-Oxo-5-((4-((4-oxo-7-(sulfonatooxy)-2-(4-(sulfonatooxy)phenyl)-4H-chromen-5-yl)oxy)but-2-en-1-yl)-oxy)-2-(4-(sulfonatooxy)phenyl)-4H-chromen-7-yl Sulfate], the “HS (Hill slope)” value was found to be 0.9 ± 0.2. Turning to `O=c1cc(-c2ccc(OS(=O)(=O)[O-])cc2)oc2cc(OS(=O)(=O)[O-])cc(OCc3cccc(COc4cc(OS(=O)(=O)[O-])cc5oc(-c6ccc(OS(=O)(=O)[O-])cc6)cc(=O)c45)c3)c12.[Na+].[Na+].[Na+].[Na+]` [NSGM 14, Sodium 4-Oxo-5-((3-(((4-oxo-7-(sulfonatooxy)-2-(4-(sulfonatooxy)phenyl)-4H-chromen-5-yl)oxy)methyl)benzyl)-oxy)-2-(4-(sulfonatooxy)phenyl)-4H-chromen-7-yl Sulfate], the “HS (Hill slope)” value was 2.3 ± 0.5. For `O=c1cc(-c2ccc(OS(=O)(=O)[O-])cc2)oc2cc(OS(=O)(=O)[O-])cc(OCc3ccc(-c4ccc(COc5cc(OS(=O)(=O)[O-])cc6oc(-c7ccc(OS(=O)(=O)[O-])cc7)cc(=O)c56)cc4)cc3)c12.[Na+].[Na+].[Na+].[Na+]` [NSGM 12, Sodium 4-Oxo-5-((4′-(((4-oxo-7-(sulfonatooxy)-2-(4-(sulfonatooxy)phenyl)-4H-chromen-5-yl)oxy)methyl)-[1,1′-bi-phenyl]-4-yl)methoxy)-2-(4-(sulfonatooxy)phenyl)-4H-chromen-7-yl Sulfate], the “HS (Hill slope)” value was determined as 1.1 ± 0.1. With `Cc1cc(COc2cc(OS(=O)(=O)[O-])cc3oc(-c4ccc(OS(=O)(=O)[O-])cc4)cc(=O)c23)c(C)cc1COc1cc(OS(=O)(=O)[O-])cc2oc(-c3ccc(OS(=O)(=O)[O-])cc3)cc(=O)c12.[Na+].[Na+].[Na+].[Na+]` [NSGM 13, Sodium 5-((2,5-Dimethyl-4-(((4-oxo-7-(sulfonatooxy)-2-(4-(sulfonatooxy)phenyl)-4H-chromen-5-yl)oxy)methyl)benzyl)-oxy)-4-oxo-2-(4-(sulfonatooxy)phenyl)-4H-chromen-7-yl Sulfate] the figure was 2.0 ± 0.1. Turning to `O=c1cc(-c2ccc(OS(=O)(=O)[O-])cc2)oc2cc(OS(=O)(=O)[O-])cc(OCc3ccc(COc4cc(OS(=O)(=O)[O-])cc5oc(-c6ccc(OS(=O)(=O)[O-])c(OS(=O)(=O)[O-])c6)c(OS(=O)(=O)[O-])c(=O)c45)cc3)c12.[Na+].[Na+].[Na+].[Na+].[Na+].[Na+]` [NSGM 16, Sodium 4-(4-Oxo-5-((4-(((4-oxo-7-(sulfonatooxy)-2-(4-(sulfonatooxy)phenyl)-4H-chromen-5-yl)oxy)methyl)benzyl)-oxy)-3,7-bis(sulfonatooxy)-4H-chromen-2-yl)-1,2-phenylene Bis(sulfate)], the “HS (Hill slope)” value was 0.9 ± 0.1. Consider `O=c1c(OS(=O)(=O)[O-])c(-c2ccc(OS(=O)(=O)[O-])c(OS(=O)(=O)[O-])c2)oc2cc(OS(=O)(=O)[O-])cc(OCc3cccc(COc4cc(OS(=O)(=O)[O-])cc5oc(-c6ccc(OS(=O)(=O)[O-])c(OS(=O)(=O)[O-])c6)c(OS(=O)(=O)[O-])c(=O)c45)n3)c12.[Na+].[Na+].[Na+].[Na+].[Na+].[Na+].[Na+].[Na+]` [NSGM 6, Sodium 4-(5-((6-(((2-(3,4-Bis(sulfonatooxy)phenyl)-4-oxo-3,7-bis(sulfonatooxy)-4H-chromen-5-yl)oxy)methyl)pyridin-2-yl)methoxy)-4-oxo-3,7-bis(sulfonatooxy)-4H-chromen-2-yl)-1,2-phenylene Bis(sulfate)], for which the “HS (Hill slope)” value was 0.8 ± 0.2. Take `O=c1cc(-c2ccc(OS(=O)(=O)[O-])cc2)oc2cc(OS(=O)(=O)[O-])cc(OCc3cccc(COc4cc(OS(=O)(=O)[O-])cc5oc(-c6ccc(OS(=O)(=O)[O-])cc6)cc(=O)c45)n3)c12.[Na+].[Na+].[Na+].[Na+]` [NSGM 15, Sodium 4-Oxo-5-((6-(((4-oxo-7-(sulfonatooxy)-2-(4-(sulfonatooxy)phenyl)-4H-chromen-5-yl)oxy)methyl)pyridin-2-yl)methoxy)-2-(4-(sulfonatooxy)phenyl)-4H-chromen-7-yl Sulfate]: the “HS (Hill slope)” value came to 1.2 ± 0.2. In the case of `O=c1c(OS(=O)(=O)[O-])c(-c2ccc(OS(=O)(=O)[O-])c(OS(=O)(=O)[O-])c2)oc2cc(OS(=O)(=O)[O-])cc(OCc3ccc(-c4ccc(COc5cc(OS(=O)(=O)[O-])cc6oc(-c7ccc(OS(=O)(=O)[O-])c(OS(=O)(=O)[O-])c7)c(OS(=O)(=O)[O-])c(=O)c56)cc4)cc3)c12.[Na+].[Na+].[Na+].[Na+].[Na+].[Na+].[Na+].[Na+]` [NSGM 3, Sodium 4-(5-((4′-(((2-(3,4-Bis(sulfonatooxy)phenyl)-4-oxo-3,7-bis(sulfonatooxy)-4H-chromen-5-yl)oxy)methyl)-[1,1′-bi-phenyl]-4-yl)methoxy)-4-oxo-3,7-bis(sulfonatooxy)-4H-chromen-2-yl)-1,2-phenylene Bis(sulfate)], the “HS (Hill slope)” value is reported as 0.8 ± 0.2.

Turning to `O=c1c(OS(=O)(=O)[O-])c(-c2ccc(OS(=O)(=O)[O-])c(OS(=O)(=O)[O-])c2)oc2cc(OS(=O)(=O)[O-])cc(OCCCCOc3cc(OS(=O)(=O)[O-])cc4oc(-c5ccc(OS(=O)(=O)[O-])c(OS(=O)(=O)[O-])c5)c(OS(=O)(=O)[O-])c(=O)c34)c12.[Na+].[Na+].[Na+].[Na+].[Na+].[Na+].[Na+].[Na+]` [NSGM 1], the “HS (Hill slope)” value amounted to 1.0 ± 0.2.
